Converted amounts (≈) assume the structure as drawn. Where two headings read alike, the source gives them in different places. Blank lines part the entries; values can stand above or below the compound they belong to.
Tests used:
[1] = cited from earlier work; for LogS_exp: experimental aqueous solubility: literature S values converted to mol/L and transformed into logS; for Experimental S value: room-temperature, around pH 7.0
[2] = Aqueous solubility (pH 7) by modified shake flask method and RP-HPLC; type: physicochemical
Procedure: In one of our drugs discovering projects toward antitumor therapeutics, a series of novel FLT3 inhibitors were designed and synthesized using the structure-based drug design methods. The aqueous solubilities (pH = 7) of these compounds were measured using the modified shake flask method and RP-HPLC ([34], [35]). Each compound was added into a 1.5 mL Eppendorf tube containing Milli-Q water (1 mL) to form the precipitates at 25°C. Then the mixture was subjected to a solubility-equilibrium stage. The tube was shook at 300 rpm at 25°C for 24 h. The precipitate was separated by centrifugation at 23,000 g for 20 min. Subsequently, 0.25 mL of supernatant was transferred into a 1 mL Eppendorf tube, and it was centrifuged again with the same settings used above. The supernatant was then used for HPLC analysis. An Agilent 1260 Infinity LC system (Agilent Technologies, Inc., Santa Clara, California) was used. For HPLC conditions, a ZORBAX SB-C18 column (5 μM, 4.6 × 150 mm; Agilent), a flow rate of 0.8 mL/min for mobile phase, a UV wavelength of 250 nm and a column temperature of 30°C were used. The sample was injected automatically by a mechanical arm and separated by a constant mixture of methanol/PBS (pH 5.6), 90:10. For each compound, a standard curve consisting of four concentrations was established. The synthetic methods of all but compound SC5 and SC6 have been published in literatures ([36]–[39]). The synthetic methods of SC5 and SC6 are described in Supplementary Method 1.

[3] = method NA, ref Hamdy et al., 2017
[4] = by HPLC, ref Thompson et al., 2018
[5] = Milli-Q water, pH 7, 25°C, 24 h shaking, RP-HPLC, read-out: Experimental S value

Compound: COC1=C/C(=N/NC(=O)c2ccncc2)C[C@@H](C)[C@]12Oc1c(Cl)c(OC)cc(OC)c1C2=O (relative stereo) [NC4]
LogS_exp: experimental aqueous solubility [1]: -4.576 logarithmic units of mol/L
Experimental S value [1, 3]: 12.53 µg/mL

Compound: COc1cc(OC)c2c(c1Cl)O[C@]1(C2=O)C(OCc2ccccc2)=C/C(=N\OCC(=O)O)C[C@H]1C (relative stereo) [NC5]
LogS_exp: experimental aqueous solubility [1]: -4.254 logarithmic units of mol/L
Experimental S value [1, 3]: 27.94 µg/mL

Compound: CN(Cc1ccc(C(F)(F)F)cc1)c1cc(C(=O)Nc2ncn(C)n2)ncn1 [NC2]
LogS_exp: experimental aqueous solubility [1]: -3.762 logarithmic units of mol/L
Experimental S value ([1]; method NA, ref Wilson et al., 2017): 173 µM

Compound: O=C(Nc1ccccc1OC(F)(F)F)N[C@@H]1COc2nc([N+](=O)[O-])cn2C1 [NC3]
Experimental S value [1, 4]: 22 µg/mL
LogS_exp: experimental aqueous solubility [1]: -4.246 logarithmic units of mol/L

Compound: O=C(/C=C(/C=C/c1cccnc1)NCCO)/C=C/c1cccnc1 [NC6]
Experimental S value ([1]; by shake flask method and colorimetry, ref Theppawong et al., 2018): 4350.8 µM
LogS_exp: experimental aqueous solubility [1]: -2.361 logarithmic units of mol/L

Compound: O=[N+]([O-])c1cn2c(n1)OC[C@H](Oc1ccc(C(F)(F)F)cn1)C2 [NC7]
Experimental S value [1, 4]: 110 µg/mL

Compound: N#CCC(=O)c1cc(C#N)cs1 [SC1]
solubility thermodynamic at 24 h [2, 5]: 30.7 µg/mL (≈ 174 µM)

Compound: N#Cc1csc(-c2cc(N)[nH]n2)c1 [SC2]
solubility thermodynamic at 24 h ([2]; pH 7, water): 31.7 µg/mL (≈ 167 µM)

More lines, now with the values ahead:

solubility thermodynamic at 24 h [2, 5]: 60.7 µg/mL (≈ 124 µM)
Compound: Cc1nc(Nc2c[nH]nc2C(=O)Nc2ccc(CN3CCOCC3)cc2)c2cc(C(C)C)sc2n1 [SC3]

Experimental S value ([2]; Milli-Q water, pH 7, 25°C, 24 h shaking, RP-HPLC): 0.10491 mg/mL
solubility thermodynamic at 24 h [2, 5]: 105 µg/mL (≈ 185 µM)
Compound: Cc1nc2c(c(-c3nc(Nc4c[nH]nc4C(=O)Nc4ccc(N5CCNCC5)cc4)c4ccsc4n3)n1)CCCC2 [SC4]

Experimental S value ([2]; 24 h, pH 7): 0.019714 mg/mL
solubility thermodynamic at 24 h ([2]; pH 7, water): 19.7 µg/mL (≈ 41.8 µM)
melting point: 236 to 238 °C
Compound: COc1ccc(Oc2ccc3c(NC(=O)c4ccc(NC5CCN(C)CC5)cc4)n[nH]c3c2)cc1 [SC5]

solubility thermodynamic at 24 h ([2]; pH 7, water): < 10 µg/mL
Compound: CN1CCC(Nc2ccc(C(=O)Nc3n[nH]c4cc(Oc5ccccc5)ccc34)cc2)CC1 [SC6]
